Results as given in ChEMBL document CHEMBL1201862, “PubChem BioAssay data set” (2004).
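Compound exposure: 48 hours, 5 concentrations, 96-well plates. GI50 is the concentration that inhibits growth by half.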 Calls of active or inactive are those of the source. No stated cut-off is given here; in the data, active = GI50 up to about 1.1 µM and inactive = higher.

Key:
Assay in all cases: inhibition of tumour cell growth, NCI panel, 48 h
[1] = test system: DU-145
[2] = test system: PC-3
[3] = test system: MDA-MB-231
[4] = test system: DMS-273
[5] = test system: SNB-78
[6] = test system: HOP-18
[7] = test system: DMS-114
[8] = test system: RXF 631
[9] = test system: 786-0

Structure (SMILES) | GI50 [1] | GI50 [2] | GI50 [3] | GI50 [4] | GI50 [5] | GI50 [6] | GI50 [7] | GI50 [8] | GI50 [9]
O=c1ccn(COC(COCc2ccccc2)COCc2ccccc2)c(=O)[nH]1 | > 100 µM (inactive) | 77.6 µM (inactive) | 55.3 µM (inactive) |  |  |  |  |  | 
O=C(O)C1CCCCN1c1ccccc1[N+](=O)[O-] (stereo unspecified) |  |  |  | > 100 µM (inactive) | > 100 µM (inactive) | > 100 µM (inactive) | > 100 µM (inactive) |  | 
C[C@H]1C(=O)O[C@@H]1[C@H]1COC(C)(C)O1 |  | > 100 µM (inactive) | > 100 µM (inactive) |  |  |  |  |  | 
CCOc1ccc(/C(C=O)=C(\Cl)c2ccc(OC)c(OC)c2)cc1 |  |  |  | > 100 µM (inactive) | > 100 µM (inactive) | > 100 µM (inactive) | > 100 µM (inactive) | > 100 µM (inactive) | 
O=C(/C=N/c1ccccc1S)c1ccco1 |  |  |  | 11.2 µM (inactive) | 16.9 µM (inactive) | 17.7 µM (inactive) | 15.3 µM (inactive) |  | 
COc1cc(/C=C/C(=O)Oc2ccc(NC(C)=O)cc2)ccc1C(=O)O/C=C/c1ccccc1 |  |  |  | > 100 µM (inactive) | > 100 µM (inactive) | > 100 µM (inactive) | > 100 µM (inactive) |  | 
CCOC(=O)NC(Nc1ncccn1)(C(=O)OCC)C(F)(F)F (stereo unspecified) | > 100 µM (inactive) | > 100 µM (inactive) | > 100 µM (inactive) |  |  |  |  |  | 
CC(C)(C)OC(=O)NCC(=O)NC1C/C(=N\O)c2sccc21 (stereo unspecified) | > 100 µM (inactive) | > 100 µM (inactive) | > 100 µM (inactive) |  |  |  |  |  | 
C=C(CC)C[C@@H]1C[C@]2(C(=O)OC)c3[nH]c4ccccc4c3CCN2C1=O | 30.4 µM (inactive) | 16.7 µM (inactive) | 24.7 µM (inactive) |  |  |  |  |  | 16 µM (inactive)
O=c1[nH]c(-c2ccc(Cl)cc2)cc2ccsc12 | 2.05 µM (inactive) | 8.83 µM (inactive) |  |  |  |  |  |  | 
COc1ccc(C[C@H](N)C(=O)N2C[C@H](CO)C[C@H](n3ccc(=O)[nH]c3=O)C2)cc1 |  |  |  | > 100 µM (inactive) |  | > 100 µM (inactive) | > 100 µM (inactive) |  | 
COC(=O)C1C(C)N1C (stereo unspecified) |  |  |  | > 100 µM (inactive) | > 100 µM (inactive) |  | > 100 µM (inactive) | > 100 µM (inactive) | 
CCOC(=O)NC(Nc1ccc(Cl)cn1)(C(F)(F)F)C(F)(F)F | > 100 µM (inactive) |  | > 100 µM (inactive) |  |  |  |  |  | 
O=C1Sc2sc(=S)sc2SC1c1ccccc1 (stereo unspecified) |  |  |  | > 100 µM (inactive) | 31.9 µM (inactive) | 48.1 µM (inactive) | 34.3 µM (inactive) |  | 
O=C1c2ccccc2C(=O)N1CC(O)COc1cccc2ccccc12 (stereo unspecified) | > 100 µM (inactive) | > 100 µM (inactive) | > 100 µM (inactive) |  |  |  |  |  | 
Clc1ccc(C[P+](c2ccccc2)(c2ccccc2)c2ccccc2)c(Cl)c1 |  |  |  | 1.93 µM (inactive) | 3.42 µM (inactive) |  | 1.52 µM (inactive) |  | 
NC(=O)/C(=N\NC(=O)c1cc2ccccc2cc1O)C1C(=O)N(c2ccccc2)N=C1N (stereo unspecified) |  |  |  |  | 69.8 µM (inactive) | 17.5 µM (inactive) | 20.4 µM (inactive) | 37.3 µM (inactive) | 40 µM (inactive)
Nc1cc(N2CCOCC2)nc(=O)n1-c1ccccc1 | > 100 µM (inactive) | > 100 µM (inactive) |  |  |  |  |  |  | > 100 µM (inactive)
CCC(C)C1NC(=O)C2CCCN2C(=O)C(CC2CO2)OC(=O)CCNC(=O)C(C)N(C)C(=O)C(C(C)C)N(C)C1=O (stereo unspecified) |  | 0.889 µM (active) | > 22.9 µM (inactive) |  |  |  |  |  | 0.0601 µM (active)
CC(=O)OC1CCC2(C)C(CCC3C2CCC2(C)C(c4ccc(=O)oc4)C(OC(C)=O)CC32O)C1 (stereo unspecified) |  |  |  | 0.0125 µM (active) | 0.0164 µM (active) | 0.0125 µM (active) |  |  | 
OC[C@H]1O[C@@H](n2cnc3cncnc32)[C@H](O)[C@@H]1O [NEBULARINE] |  |  |  | 0.59 µM (active) | 4.02 µM (inactive) | 2.62 µM (inactive) | 1.21 µM (inactive) |  | 
